From patent US20020137929A1, “1 - (3-heterocyclylphenyl) isothiourea, -isourea, -guanidine and -amidine herbicidal agents” (Intellectual Property Department, BASF Aktiengesellschaft, priority 1998, published 2002)

What was measured:
ABUTH (Velvetleaf) = assay: Preemergence herbicidal evaluation; format: in vivo, Abutilon theophrasti; settings: rated 4-5 weeks after treatment; for ABUTH rating: preemergence, 0-9 scale
Outline: (§1)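 Seeds were planted in potting soil in cups, then sprayed preemergence with the test compound in aqueous acetone at about 0.0156 to 0.500 kg per hectare. Cups were kept under greenhouse conditions and visually rated 4–5 weeks after treatment on a 0–9 scale against an untreated control.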

ZEAMX (Corn, Field) = assay: Preemergence herbicidal evaluation; format: in vivo, Zea mays; settings: rated 4-5 weeks after treatment; for ZEAMX rating: preemergence, 0-9 scale
Outline: as §1

CASOB (Sicklepod) [1] = assay: Preemergence herbicidal evaluation; format: in vivo, Cassia obtusifolia; settings: rated 4-5 weeks after treatment; for CASOB rating: preemergence, 0-9 scale
Outline: as §1

GALAP (Galium) = assay: Postemergence herbicidal evaluation; format: in vivo, Galium aparine; settings: postemergence
Outline: (§2)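 Each compound, dispersed in an acetone/water mix (50/50) carrying 0.5% TWEEN 20, is nozzle-sprayed at 40 psi on approximately two-week-old seedlings at about 0.0156–0.500 kg/ha. Plants are assessed 4–5 weeks afterward on a 0–9 scale relative to control; duplicate tests are averaged.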

ECHCG (Barnyardgrass) = assay: Preemergence herbicidal evaluation; format: in vivo, Echinochloa crus-galli; settings: rated 4-5 weeks after treatment; for ECHCG rating: preemergence, 0-9 scale
Outline: as §1

CASOB (Sicklepod) [2] = assay: Postemergence herbicidal evaluation; format: in vivo, Cassia obtusifolia; settings: postemergence
Outline: as §2

[3] = test system: GLXMAW (Soybean, Williams); assay: Preemergence herbicidal evaluation; format: in vivo, Glycine max, (L.) Merr. cv Williams; settings: rated 4-5 weeks after treatment; for GLXMAW rating: preemergence, 0-9 scale
Outline: as §1

MOOVA (Monochoria) = assay: Preemergence weed control under flooded paddy conditions; format: in vivo, Monochoria vaginalis; settings: rated 3-4 weeks after treatment
Outline: (§3)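 Using flooded silt loam (water 1.5 to 3 cm deep), seeds sown in the top 0.5 cm were exposed preemergence to compound pipetted into the flood at about 0.0313 to 0.500 kg/ha. Effects were scored 0-9 by eye three to four weeks later.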

[4] = test system: TRZAWR (Wheat, Winter, cv Riband); assay: Preemergence herbicidal evaluation; format: in vivo, Triticum aestivum; settings: rated 4-5 weeks after treatment; for TRZAWR rating: preemergence, 0-9 scale
Outline: as §1

[5] = test system: IPOHE (Morningglory, Ivyleaf); assay: Preemergence herbicidal evaluation; format: in vivo, Ipomoea hederacea; settings: rated 4-5 weeks after treatment; for IPOHE rating: preemergence, 0-9 scale
Outline: as §1

AMBEL (Ragweed, Common) = assay: Postemergence herbicidal evaluation; format: in vivo, Ambrosia artemisifolia; settings: postemergence
Outline: as §2

[6] = test system: SAGPY (Arrowhead (Pygmaea)); assay: Preemergence weed control under flooded paddy conditions; format: in vivo, Sagittaria pygmaea; settings: rated 3-4 weeks after treatment
Outline: as §3

CYPIR (Rice Flatsedge) = assay: Postemergence weed control under flooded paddy conditions; format: in vivo, Cyperus iria; settings: postemergence weeds
Outline: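 Weeds 3 to 5 cm tall and rice seedlings at the 1.5 to 2.5 leaf stage were flooded, with water held 1.5 to 3 cm above the soil. Compounds in 50/50 v/v aqueous/acetone went into the flood water at about 0.0313 to 0.500 kg/ha. Visual 0-9 ratings versus control were made 3 to 4 weeks later.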

[7] = test system: IPOHE (Morningglory, Ivyleaf); assay: Postemergence herbicidal evaluation; format: in vivo, Ipomoea hederacea; settings: postemergence
Outline: as §2

CN(C)N1C(=O)CSC1=Nc1cc(-n2c(=O)cc(C(F)(F)F)n(C)c2=O)c(F)cc1Cl [Compound 23, 3-{4-Chloro-5-{[3-(dimethylamino)-4-oxo-2-thiazolidinylidine]amino}-2-fluorophenyl}-1-methyl-6-(trifluoromethyl)-2,4(1H,3H)-pyrimidinedione]
2.0: ZEAMX preemergence herbicidal rating (ZEAMX (Corn, Field); rate 0.0625 kg/ha) | CASOB preemergence herbicidal rating (CASOB (Sicklepod) [1]; rate 0.1250 kg/ha) | ECHCG preemergence herbicidal rating (ECHCG (Barnyardgrass); rate 0.0625 kg/ha) | GLXMAW preemergence herbicidal rating ([3]; rate 0.0625 kg/ha) | AMBEL herbicidal rating (AMBEL (Ragweed, Common); rate 0.0158 kg/ha)
5.0: ZEAMX preemergence herbicidal rating (ZEAMX (Corn, Field); rate 0.1250 kg/ha) | CASOB preemergence herbicidal rating (CASOB (Sicklepod) [1]; rate 0.2500 kg/ha) | TRZAWR preemergence herbicidal rating ([4]; rate 0.1250 kg/ha) | IPOHE preemergence herbicidal rating ([5]; rate 0.1250 kg/ha)
1.0: ABUTH preemergence herbicidal rating (ABUTH (Velvetleaf); rate 0.0313 kg/ha) | ZEAMX preemergence herbicidal rating (ZEAMX (Corn, Field); rate 0.0313 kg/ha) | CASOB preemergence herbicidal rating (CASOB (Sicklepod) [1]; rate 0.0625 kg/ha) | ECHCG preemergence herbicidal rating (ECHCG (Barnyardgrass); rate 0.0313 kg/ha) | CASOB herbicidal rating (CASOB (Sicklepod) [2]; rate 0.0315 kg/ha) | TRZAWR preemergence herbicidal rating ([4]; rate 0.0625 kg/ha) | IPOHE preemergence herbicidal rating ([5]; rate 0.0625 kg/ha)
0.0: ABUTH preemergence herbicidal rating (ABUTH (Velvetleaf); rate 0.0156 kg/ha) | ZEAMX preemergence herbicidal rating (ZEAMX (Corn, Field); rate 0.0156 kg/ha) | CASOB preemergence herbicidal rating (CASOB (Sicklepod) [1]; rate 0.0156 kg/ha) | CASOB preemergence herbicidal rating (CASOB (Sicklepod) [1]; rate 0.0313 kg/ha) | ECHCG preemergence herbicidal rating (ECHCG (Barnyardgrass); rate 0.0156 kg/ha) | CASOB herbicidal rating (CASOB (Sicklepod) [2]; rate 0.0158 kg/ha) | GLXMAW preemergence herbicidal rating ([3]; rate 0.0156 kg/ha) | GLXMAW preemergence herbicidal rating ([3]; rate 0.0313 kg/ha) | TRZAWR preemergence herbicidal rating ([4]; rate 0.0156 kg/ha) | TRZAWR preemergence herbicidal rating ([4]; rate 0.0313 kg/ha) | IPOHE preemergence herbicidal rating ([5]; rate 0.0156 kg/ha) | IPOHE preemergence herbicidal rating ([5]; rate 0.0313 kg/ha) | Herbicidal rating SAGPY ([6]; 0.1160 kg/ha) | Herbicidal rating SAGPY ([6]; 0.2310 kg/ha) | Herbicidal rating CYPIR (CYPIR (Rice Flatsedge); rate 0.1160 kg/ha, 3-4 weeks after treatment) | Herbicidal rating CYPIR (CYPIR (Rice Flatsedge); rate 0.2310 kg/ha, 3-4 weeks after treatment) | Herbicidal rating CYPIR (CYPIR (Rice Flatsedge); rate 0.4630 kg/ha, 3-4 weeks after treatment)
7.0: ZEAMX preemergence herbicidal rating (ZEAMX (Corn, Field); rate 0.2500 kg/ha) | GALAP herbicidal rating (GALAP (Galium); rate 0.0315 kg/ha) | GLXMAW preemergence herbicidal rating ([3]; rate 0.2500 kg/ha) | TRZAWR preemergence herbicidal rating ([4]; rate 0.2500 kg/ha) | AMBEL herbicidal rating (AMBEL (Ragweed, Common); rate 0.0630 kg/ha)
3.0: GALAP herbicidal rating (GALAP (Galium); rate 0.0158 kg/ha) | CASOB herbicidal rating (CASOB (Sicklepod) [2]; rate 0.0630 kg/ha) | Herbicidal rating SAGPY ([6]; 0.4630 kg/ha)
4.0: ECHCG preemergence herbicidal rating (ECHCG (Barnyardgrass); rate 0.1250 kg/ha) | AMBEL herbicidal rating (AMBEL (Ragweed, Common); rate 0.0315 kg/ha) | IPOHE herbicidal rating ([7]; rate 0.0158 kg/ha)
9.0: ABUTH preemergence herbicidal rating (ABUTH (Velvetleaf); rate 0.0625 kg/ha) | ABUTH preemergence herbicidal rating (ABUTH (Velvetleaf); rate 0.1250 kg/ha) | ABUTH preemergence herbicidal rating (ABUTH (Velvetleaf); rate 0.2500 kg/ha) | GALAP herbicidal rating (GALAP (Galium); rate 0.0630 kg/ha) | Herbicidal rating MOOVA (MOOVA (Monochoria); 0.1160 kg/ha) | Herbicidal rating MOOVA (MOOVA (Monochoria); 0.2310 kg/ha) | Herbicidal rating MOOVA (MOOVA (Monochoria); 0.4630 kg/ha) | IPOHE preemergence herbicidal rating ([5]; rate 0.2500 kg/ha) | IPOHE herbicidal rating ([7]; rate 0.0315 kg/ha) | IPOHE herbicidal rating ([7]; rate 0.0630 kg/ha)
6.0: ECHCG preemergence herbicidal rating (ECHCG (Barnyardgrass); rate 0.2500 kg/ha) | GLXMAW preemergence herbicidal rating ([3]; rate 0.1250 kg/ha)

CCOC(=O)CN1C(=O)C(CC(=O)NOC)SC1=Nc1cc(-n2c(=O)cc(C(F)(F)F)n(C)c2=O)c(F)cc1Cl (stereo not drawn) [Compound 83, Ethyl 2-{{2-chloro-5-[3,6-dihydro-3-methyl-2,6-dioxo-4-(trifluoromethyl)-1(2H)-pyrimidinyl]-4-fluorophenyl}imino}-5-[(methoxycarbamoyl)methyl]-4-oxo-3-thiazolidineacetate]
4.0: ABUTH rating (ABUTH (Velvetleaf); 0.0156 kg/ha) | ECHCG rating (ECHCG (Barnyardgrass); 0.5000 kg/ha)
3.0: CASOB rating (CASOB (Sicklepod) [1]; 0.2500 kg/ha) | CASOB rating (CASOB (Sicklepod) [1]; 0.5000 kg/ha) | GALAP herbicidal rating (GALAP (Galium); rate 0.0625 kg/ha) | IPOHE rating ([5]; 0.1250 kg/ha)
5.0: GALAP herbicidal rating (GALAP (Galium); rate 0.1250 kg/ha) | GLXMAW rating ([3]; 0.2500 kg/ha) | TRZAWR rating ([4]; 0.5000 kg/ha) | Herbicidal rating CYPIR (CYPIR (Rice Flatsedge); Rate 0.0313 kg/ha, rated 3 to 4 weeks after treatment)
7.0: ZEAMX rating (ZEAMX (Corn, Field); 0.5000 kg/ha) | CASOB herbicidal rating (CASOB (Sicklepod) [2]; rate 0.0625 kg/ha) | GLXMAW rating ([3]; 0.5000 kg/ha) | SAGPY herbicidal effect rating ([6]; 0.0313 kg/ha) | SAGPY herbicidal effect rating ([6]; 0.0625 kg/ha) | SAGPY herbicidal effect rating ([6]; 0.1250 kg/ha) | Herbicidal rating CYPIR (CYPIR (Rice Flatsedge); Rate 0.2500 kg/ha, rated 3 to 4 weeks after treatment)
9.0: ABUTH rating (ABUTH (Velvetleaf); 0.0625 kg/ha) | ABUTH rating (ABUTH (Velvetleaf); 0.1250 kg/ha) | ABUTH rating (ABUTH (Velvetleaf); 0.2500 kg/ha) | ABUTH rating (ABUTH (Velvetleaf); 0.5000 kg/ha) | CASOB herbicidal rating (CASOB (Sicklepod) [2]; rate 0.0313 kg/ha) | CASOB herbicidal rating (CASOB (Sicklepod) [2]; rate 0.1250 kg/ha) | MOOVA herbicidal effect rating (MOOVA (Monochoria); 0.0313 kg/ha) | MOOVA herbicidal effect rating (MOOVA (Monochoria); 0.0625 kg/ha) | MOOVA herbicidal effect rating (MOOVA (Monochoria); 0.1250 kg/ha) | MOOVA herbicidal effect rating (MOOVA (Monochoria); 0.2500 kg/ha) | IPOHE rating ([5]; 0.2500 kg/ha) | IPOHE rating ([5]; 0.5000 kg/ha) | AMBEL herbicidal rating (AMBEL (Ragweed, Common); rate 0.0156 kg/ha) | AMBEL herbicidal rating (AMBEL (Ragweed, Common); rate 0.0313 kg/ha) | AMBEL herbicidal rating (AMBEL (Ragweed, Common); rate 0.0625 kg/ha) | AMBEL herbicidal rating (AMBEL (Ragweed, Common); rate 0.1250 kg/ha) | SAGPY herbicidal effect rating ([6]; 0.2500 kg/ha) | IPOHE herbicidal rating ([7]; rate 0.0156 kg/ha) | IPOHE herbicidal rating ([7]; rate 0.0313 kg/ha) | IPOHE herbicidal rating ([7]; rate 0.0625 kg/ha) | IPOHE herbicidal rating ([7]; rate 0.1250 kg/ha)
0.0: ZEAMX rating (ZEAMX (Corn, Field); 0.0156 kg/ha) | ZEAMX rating (ZEAMX (Corn, Field); 0.0313 kg/ha) | ZEAMX rating (ZEAMX (Corn, Field); 0.0625 kg/ha) | ZEAMX rating (ZEAMX (Corn, Field); 0.1250 kg/ha) | ZEAMX rating (ZEAMX (Corn, Field); 0.2500 kg/ha) | CASOB rating (CASOB (Sicklepod) [1]; 0.0156 kg/ha) | CASOB rating (CASOB (Sicklepod) [1]; 0.0313 kg/ha) | CASOB rating (CASOB (Sicklepod) [1]; 0.0625 kg/ha) | CASOB rating (CASOB (Sicklepod) [1]; 0.1250 kg/ha) | GALAP herbicidal rating (GALAP (Galium); rate 0.0156 kg/ha) | GALAP herbicidal rating (GALAP (Galium); rate 0.0313 kg/ha) | ECHCG rating (ECHCG (Barnyardgrass); 0.0156 kg/ha) | ECHCG rating (ECHCG (Barnyardgrass); 0.0313 kg/ha) | ECHCG rating (ECHCG (Barnyardgrass); 0.0625 kg/ha) | ECHCG rating (ECHCG (Barnyardgrass); 0.1250 kg/ha) | ECHCG rating (ECHCG (Barnyardgrass); 0.2500 kg/ha) | CASOB herbicidal rating (CASOB (Sicklepod) [2]; rate 0.0156 kg/ha) | GLXMAW rating ([3]; 0.0156 kg/ha) | GLXMAW rating ([3]; 0.0313 kg/ha) | GLXMAW rating ([3]; 0.0625 kg/ha) | GLXMAW rating ([3]; 0.1250 kg/ha) | TRZAWR rating ([4]; 0.0156 kg/ha) | TRZAWR rating ([4]; 0.0313 kg/ha) | TRZAWR rating ([4]; 0.0625 kg/ha) | TRZAWR rating ([4]; 0.1250 kg/ha) | TRZAWR rating ([4]; 0.2500 kg/ha) | IPOHE rating ([5]; 0.0156 kg/ha) | IPOHE rating ([5]; 0.0313 kg/ha) | IPOHE rating ([5]; 0.0625 kg/ha)
6.0: ABUTH rating (ABUTH (Velvetleaf); 0.0313 kg/ha) | Herbicidal rating CYPIR (CYPIR (Rice Flatsedge); Rate 0.0625 kg/ha, rated 3 to 4 weeks after treatment) | Herbicidal rating CYPIR (CYPIR (Rice Flatsedge); Rate 0.1250 kg/ha, rated 3 to 4 weeks after treatment)
